Measurements: patent publication US4699897A, “Biologically active peptides structurally related to regions within growth hormones” (Amgen, priority 1983, dated 1987)
Square brackets hold non-standard residues; d marks the D form. Peptide text beside a SMILES is read from it.

Tests used:
[1] = test system: insulin-stimulated fat cells of older obese rats; settings: cited from earlier work
rabbits = settings: cited from earlier work
normal rats [2] = settings: cited from earlier work
db/db mice = assay: Insulin potentiating effects on genetically altered mice at differing ages (plasma glucose); type: in vivo, mouse; settings: for Plasma Glucose (mg/dL at 60 min.), Age: 8 weeks, Glucose + Insulin + Peptide: db/db mice aged 8 weeks; for Plasma Glucose (mg/dL at 60 min.), Age: 8 weeks, Glucose + Insulin + Peptide / Plasma Glucose (mg/dL at 60 min.), Age: 14 weeks, Glucose + Insulin + Peptide: i.p. glucose + insulin 0.001 mU/10 g + peptide 5 μg/10 g; for Plasma Glucose (mg/dL at 60 min.), Age: 14 weeks, Glucose + Insulin + Peptide: db/db mice aged 14 weeks
Description: A study was conducted to ascertain insulin potentiating effects of Peptide Nos. 6, 9 and 10 on db/db mice aged 8 weeks and 14 weeks.
Test groups of 5 each of db/db mice weighing from 40 to 60 grams each were used. Glucose was administered intraperitoneally at a dosage of […] of a solution containing 135 mg/ml glucose. Insulin was intraperitoneally administered at a dose of 0.001 mU/10 g and Peptide Nos. 6, 9 and 10 were each simultaneously administered at a dose of 5 μg/10 g.

Sprague-Dawley rats = assay: Insulin potentiating effects of Peptide No. 6 compared to DP in rats (plasma glucose); type: in vivo; settings: for Plasma Glucose (mg/dL at 60 min.), Glucose + Insulin + peptide, Rat (normal): i.p. glucose + insulin 0.001 mU/10 g + peptide 5 μg/10 g
Description: (§1) A study was conducted to determine the relative insulin potentiating effects of Peptide No. 6 as compared to those of deletion peptide ("hGH32-46 ").
(§2) Animals in test groups of five each were meployed in these procedures. Sprague-Dawley rats weighed approximately 200 grams; homozygous genetically abnormal mice (db/db and ob/ob) had weights in the range of 40 to 60 grams; heterozygous normal mice all weighed approximately 25 grams. Glucose was administered intraperitoneally at a dosage of […] of a solution containing 135 mg/ml glucose, except for one group of rats which were given an oral dose of 1 ml of 270 mg/ml glucose solution. Insulin was intraperitoneally administered at a dose of 0.001 mU/10 g and both Peptide No. 6 and deletion peptide were administered were simultaneously administered at a dose of 5 μg/10 g.

[3] = test system: normal male Sprague-Dawley rats; assay: Insulin potentiating effects in normal rats (plasma glucose after i.p. glucose load); type: in vivo, rat; settings: for Plasma Glucose (mg/dL at 60 min.), Glucose + Insulin + Peptide: rats fasted 18 h, i.p. 1.0 ml 0.75M glucose + 15 mU insulin + 25 μg peptide, mean ± standard error
Description: A study was conducted to determine insulin potentiating effects of Peptide Nos. 3, 5, and 6. Also tested was a dipeptide NH2 -Ile-Pro-COOH, a dipeptide outside the scope of the invention. Test groups of 5 normal male Sprague-Dawley rats weighing about 200 grams were fasted for 18 hours and received (intraperitoneally in rapid succession) 1.0 ml of 0.75M glucose, and either 15 mU of insulin with 1% bovine serum ablumin in normal saline (pH 7.4) or a mixture of insulin as above with 25 μg Peptide Nos. 3, 5, 6 and dipeptide. Controls received only bovine serum albumin and saline. Blood was drawn after one hour and plasma glucose levels were determined.

[4] = test system: normal female Rhesus monkeys; assay: Insulin potentiating effects in primates of Peptide No. 6 compared to deletion peptide (plasma glucose); type: in vivo, Rhesus monkey
Description: In a manner analogous to Study C, above, Peptide No. 6 and deletion peptide were studied for insulin potentiating effects in Rhesus monkeys. Blood samples were drawn from normal female monkeys (in […] experimental groups of 3) five minutes before administration of an oral dose of 3.0 ml/kg of 0.5 g/ml glucose and intramuscular administration of either: (1) 0.5 ml/kg phosphate buffered saline (PBS), pH 7.4; (2) deletion peptide 0.1 ml/kg of 1.0 mg/ml solution in PBS; (3) deletion peptide as above combined with 0.5 ml/kg of 20 mU/ml insulin in PBS; or (4) insulin alone as above or (5) Peptide No. 6 0.1 ml/kg of a 0.5 mg/ml solution in PBS combined with insulin as above. Blood samples were then periodically withdrawn over two hours and analyzed for plasma glucose levels.

[5] = test system: ob/ob, ob/+, db/db and db/m mice; assay: Insulin potentiating effects of Peptide No. 6 compared to DP in mice (plasma glucose); type: in vivo, mouse; settings: for Plasma Glucose (mg/dL at 60 min.), Glucose + Insulin + peptide, Mouse db/db / Plasma Glucose (mg/dL at 60 min.), Glucose + Insulin + peptide, Mouse db/m (normal) / Plasma Glucose (mg/dL at 60 min.), Glucose + Insulin + peptide, Mouse ob/+ (normal) / Plasma Glucose (mg/dL at 60 min.), Glucose + Insulin + peptide, Mouse ob/ob: i.p. glucose + insulin 0.001 mU/10 g + peptide 5 μg/10 g
Description: as §1, §2

[6] = test system: various model animal test systems; settings: cited from earlier work
normal rats [7] = settings: cited from earlier work; remark: listed apart in the source
[8] = test system: GT-impaired strain of mice (YS/Wf Nctr); settings: cited from earlier work

Molecule: synthetic tetradecapeptide having a sequence of amino acids copying residues at positions 31 through 44: literature tetradecapeptide copying hGH residues 31 through 44 (Yudaev et al.) (FEEAYIPKEQKYSF; UniProt P01241 57-70, looked up, fragment)
- in vitro effect on fat cells ([1]; Yudaev et al. 1983): substantially the same in vitro effect on fat cells
- in vivo hypoglycemic effect (rabbits): absence of any in vivo hypoglycemic effect
- in vivo hypoglycemic effect (normal rats [2]): absence of any in vivo hypoglycemic effect

Molecule: CC[C@H](C)[C@H](NC(=O)[C@H](Cc1ccc(O)cc1)NC(=O)[C@@H](C)NC(=O)[C@H](CCC(=O)O)NC(=O)[C@@H](N)CCC(=O)O)C(=O)N1CCC[C@H]1C(=O)N[C@@H](CCCCN)C(=O)O [Peptide No. 9] (H-EE[dA]YIPK-OH)
- Plasma Glucose (mg/dL at 60 min.), Age: 8 weeks, Glucose + Insulin + Peptide (db/db mice): 90.8 ± 16 mg/dL
- Plasma Glucose (mg/dL at 60 min.), Age: 14 weeks, Glucose + Insulin + Peptide (db/db mice): 228 ± 38 mg/dL

Molecule: CC[C@H](C)[C@H](NC(=O)[C@H](Cc1ccc(O)cc1)NC(=O)[C@H](C)NC(=O)[C@H](CCC(=O)O)NC(=O)[C@@H](N)CCC(=O)O)C(=O)N1CCC[C@H]1C(=O)N[C@@H](CCCCN)C(=O)O [Peptide No. 6, GLU--GLU--ALA--TYR--ILE--PRO--LYS] (H-EEAYIPK-OH)
- Plasma Glucose (mg/dL at 60 min.), Glucose + Insulin + peptide, Rat (normal) (Sprague-Dawley rats): 52 ± 6 mg/dL
- insulin potentiating effect (in words) ([3]; normal rats, Table III): exceptionally active insulin potentiator
- Plasma Glucose (mg/dL at 60 min.), Glucose + Insulin + Peptide [3]: 52 ± 28 mg/dL
- Plasma Glucose (mg/dL), Glucose + Insulin + Peptide No. 6, +5 min. ([4]; +5 min., oral glucose + i.m. insulin + peptide 0.1 ml/kg of 0.5 mg/ml): 62 ± 6 mg/dL
- Plasma Glucose (mg/dL), Glucose + Insulin + Peptide No. 6, +15 min. ([4]; +15 min., oral glucose + i.m. insulin + peptide 0.1 ml/kg of 0.5 mg/ml): 69.5 ± 6 mg/dL
- Plasma Glucose (mg/dL), Glucose + Insulin + Peptide No. 6, +30 min. ([4]; +30 min., oral glucose + i.m. insulin + peptide 0.1 ml/kg of 0.5 mg/ml): 68 ± 9.7 mg/dL
- Plasma Glucose (mg/dL), Glucose + Insulin + Peptide No. 6, +45 min. ([4]; +45 min., oral glucose + i.m. insulin + peptide 0.1 ml/kg of 0.5 mg/ml): 73 ± 3.5 mg/dL
- Plasma Glucose (mg/dL), Glucose + Insulin + Peptide No. 6, +60 min. ([4]; +60 min., oral glucose + i.m. insulin + peptide 0.1 ml/kg of 0.5 mg/ml): 79 ± 6.5 mg/dL
- Plasma Glucose (mg/dL), Glucose + Insulin + Peptide No. 6, +120 min. ([4]; +120 min., oral glucose + i.m. insulin + peptide 0.1 ml/kg of 0.5 mg/ml): 88 ± 12 mg/dL
- insulin potentiating effect relative to deletion peptide (in words) ([4]; Table VI): essentially on par with, or superior on a weight basis to, those of deletion peptide
- insulin potentiating effect (in words) (db/db mice; db/db mice aged 8 and 14 weeks, Table IV): significant effectiveness
- Plasma Glucose (mg/dL at 60 min.), Age: 8 weeks, Glucose + Insulin + Peptide (db/db mice): 92.3 ± 12 mg/dL
- Plasma Glucose (mg/dL at 60 min.), Age: 14 weeks, Glucose + Insulin + Peptide (db/db mice): 124 ± 34 mg/dL
- Plasma Glucose (mg/dL at 60 min.), Glucose + Insulin + peptide, Mouse db/db [5]: 109 ± 22 mg/dL
- Plasma Glucose (mg/dL at 60 min.), Glucose + Insulin + peptide, Mouse db/m (normal) [5]: 22 ± 10 mg/dL
- Plasma Glucose (mg/dL at 60 min.), Glucose + Insulin + peptide, Mouse ob/+ (normal) [5]: 28.5 ± 5 mg/dL
- Plasma Glucose (mg/dL at 60 min.), Glucose + Insulin + peptide, Mouse ob/ob [5]: 118 ± 20 mg/dL
- insulin potentiating effect relative to deletion peptide (in words) ([5]; mice and rats, Table V): uniformly more effective in potentiating insulin effects than deletion peptide alone

Molecule: CC[C@H](C)[C@H](N)C(=O)N1CCC[C@H]1C(=O)O [NH2 --Ile--Pro--COOH, NH2 -Ile-Pro-COOH] (H-Ile-Pro-OH)
- Plasma Glucose (mg/dL at 60 min.), Glucose + Insulin + Peptide [3]: 95 ± 30 mg/dL

Molecule: CC[C@H](C)[C@H](NC(=O)[C@H](Cc1ccc(O)cc1)NC(=O)[C@H](C)NC(=O)[C@H](CCC(=O)O)NC(=O)[C@@H](N)CCC(=O)O)C(=O)N1CCC[C@H]1C(=O)N[C@@H](CCCCN)C(=O)N[C@@H](CCC(=O)O)C(=O)N[C@@H](CCC(N)=O)C(=O)N[C@@H](CCCCN)C(=O)N[C@@H](Cc1ccc(O)cc1)C(=O)N[C@@H](CO)C(=O)N[C@@H](Cc1ccccc1)C(=O)N[C@@H](CC(C)C)C(=O)N[C@@H](CCC(N)=O)C(=O)O [hGH32-46, NH2 -Glu-Glu-Ala-Tyr-Ile-Pro-Lys-Glu-Gln-Lys-Tyr-Ser-Phe-Leu-Gln-COOH] (H-EEAYIPKEQKYSFLQ-OH)
- Plasma Glucose (mg/dL at 60 min.), Glucose + Insulin + peptide, Rat* (normal) (Sprague-Dawley rats; glucose administered orally (1 ml of 270 mg/ml) + insulin 0.001 mU/10 g + peptide 5 μg/10 g): 93.3 ± 14 mg/dL
- Plasma Glucose (mg/dL at 60 min.), Glucose + Insulin + peptide, Rat (normal) (Sprague-Dawley rats): 73 ± 10 mg/dL
- Plasma Glucose (mg/dL), Glucose + Insulin + hGH32-46, +5 min. ([4]; +5 min., oral glucose + i.m. insulin + peptide 0.1 ml/kg of 1.0 mg/ml): 64 ± 4 mg/dL
- Plasma Glucose (mg/dL), Glucose + Insulin + hGH32-46, +15 min. ([4]; +15 min., oral glucose + i.m. insulin + peptide 0.1 ml/kg of 1.0 mg/ml): 69 ± 9 mg/dL
- Plasma Glucose (mg/dL), Glucose + Insulin + hGH32-46, +30 min. ([4]; +30 min., oral glucose + i.m. insulin + peptide 0.1 ml/kg of 1.0 mg/ml): 80 ± 5.3 mg/dL
- Plasma Glucose (mg/dL), Glucose + Insulin + hGH32-46, +45 min. ([4]; +45 min., oral glucose + i.m. insulin + peptide 0.1 ml/kg of 1.0 mg/ml): 80 ± 5.9 mg/dL
- Plasma Glucose (mg/dL), Glucose + Insulin + hGH32-46, +60 min. ([4]; +60 min., oral glucose + i.m. insulin + peptide 0.1 ml/kg of 1.0 mg/ml): 96 ± 8 mg/dL
- Plasma Glucose (mg/dL), Glucose + Insulin + hGH32-46, +120 min. ([4]; +120 min., oral glucose + i.m. insulin + peptide 0.1 ml/kg of 1.0 mg/ml): 97 ± 6.6 mg/dL
- potentiation of insulin activity ([6]; contemporaneously administered with exogenous insulin): potentiate insulin activity and augment the hypoglycemic effectiveness of even quite small parenteral doses of insulin
- hypoglycemic effects of the peptide alone ([6]; various model animal test systems): lacked hypoglycemic effects
- late increases in free fatty acids and glycemic effects (normal rats [7]): did not show either the late increases in free fatty acids nor the glycemic effects which are characteristic of intact hGH
- in vitro glucose utilization of fat cells ([1]; insulin-stimulated fat cells of older obese rats, Frigeri et al.): in vitro increase in glucose utilization
- Plasma Glucose (mg/dL at 60 min.), Glucose + Insulin + peptide, Mouse db/db [5]: 134 ± 13 mg/dL
- Plasma Glucose (mg/dL at 60 min.), Glucose + Insulin + peptide, Mouse db/m (normal) [5]: 49 ± 12 mg/dL
- Plasma Glucose (mg/dL at 60 min.), Glucose + Insulin + peptide, Mouse ob/+ (normal) [5]: 56 ± 9 mg/dL
- Plasma Glucose (mg/dL at 60 min.), Glucose + Insulin + peptide, Mouse ob/ob [5]: 138 ± 11 mg/dL
- glucose tolerance [8]: unspecified degree of improvement in glucose tolerance
